Among the data in patent US8735414B2 (priority 2009, dated 2014) are IC50 and melting point values, retold here.

For data set [1], the system named is bicistronic HCV replicon (replicon RNA, GenBank Accession No. AJ242654). Description: HCV Replicon Assay. In kind it is cell-based. As to conditions: Hepatitis C virus, 72 h, read-out: Replicon IC50. In general terms: In antiviral work, replicon cells carry a viral genome segment that copies itself.

pIC50: −log10 of the molar value.

The pIC50 is the negative decadic logarithm of the IC50, by convention in mol/L. As a reminder, the melting point is the temperature of the solid-liquid transition. In turn, `Cc1ccc2c(c1F)c(C#N)c(-c1ccc(S(=O)(=O)NC(C)(C)C(F)(F)F)cn1)n2C1CCCC1` [compound 614, 6-(3-cyano-1-cyclopentyl-4-fluoro-5-methyl-1H-indol-2-yl)-N-(1,1,1-trifluoro-2-methylpropan-2-yl)pyridine-3-sulfonamide] displayed a melting point of 200 to 205 °C. In addition, in data set [1], the pIC50 was 5.70 to 6.30.
For `Cc1ccc2c(C#N)c(-c3ncc(S(=O)(=O)NC(CF)CF)cn3)n(C3CCC3)c2c1F` [compound 557, 2-(3-cyano-1-cyclobutyl-7-fluoro-6-methyl-1H-indol-2-yl)-N-(1,3-difluoropropan-2-yl)pyrimidine-5-sulfonamide], in that order: 191 to 198 °C and above 6.30.
As to `CCn1c(-c2ccc(N(CC(F)F)S(=O)(=O)C3CC3)nc2)c(C#N)c2ccc(OC(C)C)cc21` [compound 292, N-{5-[3-cyano-1-ethyl-6-(propan-2-yloxy)-1H-indol-2-yl]pyridin-2-yl}-N-(2,2-difluoroethyl)cyclopropanesulfonamide], the melting point was in the range of 232 to 235 °C. In addition, the pIC50 in data set [1] was 5.70 to 6.30.
For `C[C@H](NS(=O)(=O)c1ccc(-c2c(C#N)c3ccc(C#N)cc3n2C2CCC2)nc1)C(F)(F)F` [compound 467, 6-(3,6-dicyano-1-cyclobutyl-1H-indol-2-yl)-N-[(2S)-1,1,1-trifluoropropan-2-yl]pyridine-3-sulfonamide], in that order: 223 to 225 °C and above 6.30.
Taken in the same sequence, the figures for `Cc1cncc(-n2c(-c3ccc(S(=O)(=O)N[C@@H](C)C(F)(F)F)cn3)c(C#N)c3cc(F)c(C)cc32)n1` [compound 915, 6-[3-cyano-5-fluoro-6-methyl-1-(6-methylpyrazin-2-yl)-1H-indol-2-yl]-N-[(2S)-1,1,1-trifluoropropan-2-yl]pyridine-3-sulfonamide] were 211 to 215 °C and above 6.30.
`CC[C@H](NS(=O)(=O)c1ccc(-c2c(C#N)c3cc(F)c(C)cc3n2C2CCC2)nc1)C(F)(F)F` [compound 826, 6-(3-cyano-1-cyclobutyl-5-fluoro-6-methyl-1H-indol-2-yl)-N-[(2S)-1,1,1-trifluorobutan-2-yl]pyridine-3-sulfonamide]: the melting point is 212 to 217 °C. In addition, the pIC50 in data set [1] is above 6.30.
`C[C@@H](NS(=O)(=O)c1ccc(-c2c(C#N)c3cc(F)c(OC(F)F)cc3n2CC2CC2)nc1)C(F)(F)F` [compound 789, 6-[3-cyano-1-(cyclopropylmethyl)-6-(difluoromethoxy)-5-fluoro-1H-indol-2-yl]-N-[(2R)-1,1,1-trifluoropropan-2-yl]pyridine-3-sulfonamide] had a melting point of 148 to 153 °C. In data set [1], the pIC50 is above 6.30.
Taken in the same sequence, the figures for `Cc1ccc2c(C#N)c(-c3ccc(S(=O)(=O)NC(C)(C)C(F)(F)F)cn3)n(C3CCCC3)c2c1` [compound 371, 6-(3-cyano-1-cyclopentyl-6-methyl-1H-indol-2-yl)-N-(1,1,1-trifluoro-2-methylpropan-2-yl)pyridine-3-sulfonamide] were 202 to 211 °C and above 6.30.
Consider `C[C@H](NS(=O)(=O)c1cnc(-c2c(C#N)c3ccc(OC(F)F)cc3n2C2CCCCC2)nc1)C(F)(F)F` [compound 472, 2-[3-cyano-1-cyclohexyl-6-(difluoromethoxy)-1H-indol-2-yl]-N-[(2S)-1,1,1-trifluoropropan-2-yl]pyrimidine-5-sulfonamide], for which the melting point lay within 187 to 189 °C. For the same compound, in data set [1], the pIC50 is above 6.30.
In turn, `CC(C)NS(=O)(=O)c1ccc(-c2c(C#N)c3cc(F)ccc3n2CC2CC2)nc1` [compound 6, 6-[3-cyano-1-(cyclopropylmethyl)-5-fluoro-1H-indol-2-yl]-N-(propan-2-yl)pyridine-3-sulfonamide] returned a melting point of 160 to 162 °C. Moreover, the pIC50 in data set [1] is above 6.30.
Taken in the same sequence, the figures for `Cc1cc2c(cc1F)c(C(=O)O)c(-c1ccc(S(=O)(=O)NC3(C(F)(F)F)CC3)cn1)n2C1CCCCC1` [compound 835, 1-cyclohexyl-5-fluoro-6-methyl-2-(5-{[1-(trifluoromethyl)cyclopropyl]sulfamoyl}pyridin-2-yl)-1H-indole-3-carboxylic acid] were 205 to 213 °C and above 6.30.
For `C[C@H](NS(=O)(=O)c1cnc(-c2c(C#N)c3ccc(Cl)cc3n2C2CCCCC2)nc1)C(F)(F)F` [compound 516, 2-(6-chloro-3-cyano-1-cyclohexyl-1H-indol-2-yl)-N-[(2S)-1,1,1-trifluoropropan-2-yl]pyrimidine-5-sulfonamide], in that order: 215 to 220 °C and above 6.30.
Taken in the same sequence, the figures for `N#Cc1c(-c2ccc(S(=O)(=O)NC(CF)CF)cn2)n(C2CCC2)c2cc(CC(F)F)ccc12` [compound 267, 6-[3-cyano-1-cyclobutyl-6-(2,2-difluoroethyl)-1H-indol-2-yl]-N-(1,3-difluoropropan-2-yl)pyridine-3-sulfonamide] were 166 to 168 °C and above 6.30.
The compound `COc1ccc2c(C#N)c(-c3ncc(S(=O)(=O)N[C@@H](C)C(F)(F)F)cn3)n(C3CCCC3)c2c1` [compound 406, 2-(3-cyano-1-cyclopentyl-6-methoxy-1H-indol-2-yl)-N-[(2S)-1,1,1-trifluoropropan-2-yl]pyrimidine-5-sulfonamide] gave a melting point of 211 to 212 °C. Further, the pIC50 in data set [1] was above 6.30.
For `CC(C)n1c(-c2ccc(S(=O)(=O)N[C@@H](C)C3CC3)cn2)c(C#N)c2ccc(OC(F)(F)F)cc21` [compound 308, 6-[3-cyano-1-(propan-2-yl)-6-(trifluoromethoxy)-1H-indol-2-yl]-N-[(1S)-1-cyclopropylethyl]pyridine-3-sulfonamide], in that order: 144 to 145 °C and 5.70 to 6.30.
Take `CCc1cc2c(cc1F)c(C(N)=O)c(-c1ccc(S(=O)(=O)N[C@@H](C)C(F)(F)F)cn1)n2-c1ccc(C)cc1` [compound 1021, 6-ethyl-5-fluoro-1-(4-methylphenyl)-2-(5-{[(2S)-1,1,1-trifluoropropan-2-yl]sulfamoyl}pyridin-2-yl)-1H-indole-3-carboxamide]: the melting point lay within 228 to 233 °C. Further, in data set [1], the pIC50 is above 6.30.
On to `COc1ccc2c(C#N)c(-c3ccc(S(=O)(=O)N[C@@H](C)C(F)(F)F)cn3)n(C3CCC3)c2c1` [compound 427, 6-(3-cyano-1-cyclobutyl-6-methoxy-1H-indol-2-yl)-N-[(2S)-1,1,1-trifluoropropan-2-yl]pyridine-3-sulfonamide], for which the melting point was 206 to 212 °C. In addition, the negative-log IC50 (pIC50) in data set [1] was above 6.30.
In turn, `CC(C)(NS(=O)(=O)c1ccc(-c2c(C#N)c3cc(F)c(C4CC4)cc3n2C2CCCC2)nc1)C(F)(F)F` [compound 831, 6-(3-cyano-1-cyclopentyl-6-cyclopropyl-5-fluoro-1H-indol-2-yl)-N-(1,1,1-trifluoro-2-methylpropan-2-yl)pyridine-3-sulfonamide] came in with a melting point of 183 to 185 °C. Besides, in data set [1], the pIC50 is above 6.30.
For `CC(C)(C)NS(=O)(=O)c1ccc(-c2c(C#N)c3ccc(OC(F)(F)F)cc3n2C2CCCC2)nc1` [compound 18, N-tert-butyl-6-[3-cyano-1-cyclopentyl-6-(trifluoromethoxy)-1H-indol-2-yl]pyridine-3-sulfonamide], in that order: 182 to 184 °C and 5.70 to 6.30.
